Test results: patent US20060104907A1, “Biologically potent analogues of the Dmt-Tic pharmacophore and methods of use” (Government of the U.S.A., represented by the Secretary, …, priority 2004, published 2006)
Counter-ions that a name gives are not always drawn. Like-named read-outs stand apart in the source and are kept apart here.

Assays:
δ-opioid receptor [1] = target: T1, δ-opioid receptor (Homo sapiens, UniProt P41143); details: cited from earlier work
mouse δ-opioid receptors = target: T2, mouse δ-opioid receptors (Mus musculus, UniProt P32300); assay: Confocal microscopic visualization of fluorescent probe binding in NG108-15 cells; assay type: cell-based; details: for blockage of fluorescence of probe 3 bound to δ-opioid receptors: NG108-15 cells preincubated with antagonist (naltrindole 0.2 μM, 5 min) before adding the probe
T2 construct: NG108-15 (mouse N18 neuroblastoma x rat C6 glioma) cell line, which expresses mouse δ-opioid receptors; endogenous in cells; host or cells: NG108-15 (mouse N18 neuroblastoma x rat C6 glioma)
T2 sequence (P32300 whole entry): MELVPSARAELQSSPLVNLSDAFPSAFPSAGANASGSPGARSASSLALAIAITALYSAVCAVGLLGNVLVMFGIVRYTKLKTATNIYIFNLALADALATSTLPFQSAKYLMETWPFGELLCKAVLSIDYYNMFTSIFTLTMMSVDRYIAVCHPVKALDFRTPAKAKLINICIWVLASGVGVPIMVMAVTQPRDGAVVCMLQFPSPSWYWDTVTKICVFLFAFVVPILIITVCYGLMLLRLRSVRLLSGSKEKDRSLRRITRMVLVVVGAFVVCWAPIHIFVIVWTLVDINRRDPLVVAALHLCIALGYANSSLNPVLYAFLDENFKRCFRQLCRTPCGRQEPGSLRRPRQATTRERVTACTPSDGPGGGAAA
Description: Visualization of δ-opioid receptor sites with the inventive fluorescent probe was obtained by incubating (15 min at 35° C.) the fluorescent tripeptide 3 (0.2 μM) with the NG108-15 (mouse N18 neuroblastoma x rat C6 glioma) cell line, which expresses mouse δ-opioid receptors. […] Localization and visualization of opioid receptor binding sites were obtained by incubating the fluorescent probe with the NG108-15 cells as shown in the left half of the fluorescent photomicrograph obtained from the confocal scanning laser microscope (FIG. 3).

δ-opioid receptors [2] = target: T3, δ-opioid receptors (Mus musculus, UniProt P32300); details: cited from earlier work
T3 construct: preparations of mouse vas deferens (MVD, containing δ-opioid receptors); from tissue; host or cells: mouse vas deferens
T3 sequence (P32300 whole entry): as above

δ-opioid receptors [3] = target: T4, δ-opioid receptors (Rattus norvegicus, UniProt P33533); details: rat brain synaptosomes; data taken from Balboni et al., J. Med Chem. 2004; read-out: Receptor affinity Ki^δ; cited from earlier work
T4 construct: using rat brain synaptosomes (P2 fraction); from tissue; host or cells: rat brain synaptosomes (P2 fraction)
T4 sequence (P33533 whole entry): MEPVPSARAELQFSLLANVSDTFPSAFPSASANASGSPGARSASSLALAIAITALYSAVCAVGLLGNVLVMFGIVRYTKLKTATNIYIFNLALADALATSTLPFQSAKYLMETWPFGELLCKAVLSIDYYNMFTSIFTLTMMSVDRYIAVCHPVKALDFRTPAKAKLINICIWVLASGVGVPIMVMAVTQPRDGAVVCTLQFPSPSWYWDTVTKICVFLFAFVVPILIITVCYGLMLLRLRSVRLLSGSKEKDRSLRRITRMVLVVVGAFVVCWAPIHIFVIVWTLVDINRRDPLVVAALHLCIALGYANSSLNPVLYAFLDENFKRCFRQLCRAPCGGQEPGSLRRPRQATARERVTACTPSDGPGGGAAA

μ-opioid receptors [4] = assay: Functional bioactivity in guinea-pig ileum (GPI), electrically-evoked twitch; assay type: cell-based; details: agonist activity, inhibition of electrically-evoked twitch
Description: (§1) Preparations of myenteric plexus-longitudinal muscle obtained from male guinea-pig ileum (GPI, enriched in μ-opioid receptors) and preparations of mouse vas deferens (MVD, containing δ-opioid receptors) were used for field stimulation with bipolar rectangular pulses of supramaximal voltage (Melchiorri et al., Eur. J. Pharm., 195: 201-207 (1991)). Agonists were evaluated for their ability to inhibit the electrically-evoked twitch. The biological potency of the compounds was compared with that of the μ-opioid receptor agonist dermorphin in GPI and with that of the δ-opioid receptor agonist deltorphin C in MVD. The results are expressed as the IC50 values obtained from dose-response curves (Prism™, GraphPad). To evaluate antagonistic properties, compounds 2 and 3 were added to the bath and allowed to interact with tissue receptor sites 5 min before adding deltorphin C. The IC50 values (nM) represent the mean of not less than six fresh tissue samples±SE. […] IC50 and pA2 values (nM) are mean ±SE of at least six experiments conducted with fresh tissues.

μ-opioid receptors [5] = target: T5, μ-opioid receptors (Rattus norvegicus, UniProt P33535); details: rat brain synaptosomes; data taken from Balboni et al., J. Med Chem. 2004; read-out: Receptor affinity Ki^u; cited from earlier work
T5 construct: using rat brain synaptosomes (P2 fraction); from tissue; host or cells: rat brain synaptosomes (P2 fraction)
T5 sequence (P33535 whole entry): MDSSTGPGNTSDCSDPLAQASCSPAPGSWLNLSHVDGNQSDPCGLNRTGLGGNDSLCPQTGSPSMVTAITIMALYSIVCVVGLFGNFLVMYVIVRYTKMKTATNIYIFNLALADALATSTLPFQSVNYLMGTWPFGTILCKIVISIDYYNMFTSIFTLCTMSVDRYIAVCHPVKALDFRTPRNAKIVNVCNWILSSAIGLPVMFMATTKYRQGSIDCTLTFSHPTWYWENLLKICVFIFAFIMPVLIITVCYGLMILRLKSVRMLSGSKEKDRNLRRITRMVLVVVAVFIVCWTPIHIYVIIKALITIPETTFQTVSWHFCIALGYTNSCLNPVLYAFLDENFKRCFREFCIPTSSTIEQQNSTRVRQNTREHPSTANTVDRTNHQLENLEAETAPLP

δ-opioid receptors [6] = target: T3, δ-opioid receptors; assay: Functional bioactivity in mouse vas deferens (MVD), electrically-evoked twitch; assay type: cell-based
Description: as §1

δ-opioid receptors [7] = target: T4, δ-opioid receptors; assay: Competitive receptor binding assay, rat brain synaptosomes (P2 fraction), [3H]DPDPE; details: for fold decrease of δ-opioid receptor selectivity: compared to reference 1; for μ/δ (δ-opioid receptor selectivity): ratio Ki μ / Ki δ
μ-opioid receptors [8] = target: T5, μ-opioid receptors; assay: Competitive receptor binding assay, rat brain synaptosomes (P2 fraction), [3H]DAMGO
δ-opioid receptor [9] = target: T1, δ-opioid receptor; details: δ-opioid antagonist activity, literature; cited from earlier work
[10] = Fluorescence emission spectra and quantum yield; assay type: physicochemical; details: Tris/HCl buffer pH 6.6, excitation 350 nm
Description: Fluorescence emission spectra were recorded on a Jobin Yvon-Spex FluoroMax-2 spectrofluorometer with 1 nm spectral resolution for excitation and emission. A peptide solution at a concentration of 2×10^−5M in Tris-HCl buffer, pH 6.6, was used. The excitation wavelength was 350 nm. Fluorescence quantum yield (φ) was determined relative to quinine sulfate (Fluka) in 1 N H2SO4 (φ=0.546) as a reference (Meech et al., Journal of Photochemistry, 23: 193 (1983)). The quantum yield was calculated according to the following equation: [formula] where the subscripts S and R refer to the sample ns and reference compound, respectively; E is the integrated area under the corrected emission spectrum; A is the absorbance of the solution at the excitation wavelength. Absorbance values were kept below 0.02 to minimise inner filter and self-quenching effects. Since both the sample and the reference were in aqueous solution, the correction for the refractive index (nS/nR)^2 was considered to be of no significant relevance.

T1 sequence (P41143 whole entry): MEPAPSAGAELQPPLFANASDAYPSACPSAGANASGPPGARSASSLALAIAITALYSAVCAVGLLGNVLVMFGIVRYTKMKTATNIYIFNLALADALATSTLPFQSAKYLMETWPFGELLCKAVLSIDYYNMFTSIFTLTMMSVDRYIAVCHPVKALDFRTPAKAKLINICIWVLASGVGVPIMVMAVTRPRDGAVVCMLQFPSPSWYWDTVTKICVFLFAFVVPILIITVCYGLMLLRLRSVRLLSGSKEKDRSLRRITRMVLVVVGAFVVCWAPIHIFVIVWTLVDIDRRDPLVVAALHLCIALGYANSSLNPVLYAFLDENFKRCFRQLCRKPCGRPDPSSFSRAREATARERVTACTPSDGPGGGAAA

For H-Tyr-Tic-Phe-(Phe)-OH [TIPP], the δ-selectivity (δ-opioid receptor [1]; Arttamangkul et al., Mol. Pharmacol. 2000) is given as > 20,000.

In the case of `Cc1cc(O)cc(C)c1C[C@H](N)C(=O)N1Cc2ccccc2C[C@H]1C(=O)N[C@@H](CCC(=O)O)C(=O)NCCCCCNC(=S)Nc1ccc(-c2c3ccc(=O)cc-3oc3cc(O)ccc23)c(C(=O)O)c1` (as salt: TFA) [Compound 3, 5-(3-{5-[2-({2-[2-amino-3-(4-hydroxy-2,6-dimethyl-phenyl)-propionyl]-1,2,3,4-tetrahydro-isoquinoline-3-carbonyl}-amino)-4-carboxy-butyrylamino]-pentyl}-thioureido)-2-(6-hydroxy-3-oxo-3H-xanten-9-yl)-benzoic acid], the melting point is reported as 169 to 171 °C.

In the case of `Oc1ccc2c3c1O[C@H]1c4[nH]c5ccccc5c4C[C@@]4(O)[C@@H](C2)N(CC2CC2)CC[C@]314` [naltrindole], the “blockage of fluorescence of probe 3 bound to δ-opioid receptors” value (mouse δ-opioid receptors) is reported as “essentially eliminated the fluorescence” and the “blockage of fluorescence of probe 3 bound to δ-opioid receptors” value (mouse δ-opioid receptors; listed as NTI) is reported as “considerable blockage of the fluorescence”.

In the case of H-Dmt-Tic-Glu-NH2 [Compound 1], the MVD activity type (δ-opioid receptors [2]; Balboni et al., J. Med. Chem. 2004) is listed as “partial δ-opioid agonist”, the IC50 (δ-opioid receptors [2]; agonist activity, inhibition of electrically-evoked twitch, data taken from Balboni et al. 2004, read-out: MVD (IC50)) is listed as 2.58 ± 0.8 nM and the Ki (δ-opioid receptors [3]) is listed as 0.06 ± 0.008 nM. The IC50 (μ-opioid receptors [4]) was > 1000 nM and the Ki (μ-opioid receptors [5]) was 1360 ± 268 nM.

With `Cc1cc(O)cc(C)c1C[C@H](N)C(=O)N1Cc2ccccc2C[C@H]1C(=O)N[C@@H](CCC(=O)O)C(=O)NCCCCCN` [Compound 2, H-Dmt-Tic-Glu-NH-(CH2)5—NH2] the melting point was 163 to 165 °C, the Kb (δ-opioid receptors [6]) was 1.58 nM and the MVD activity type (δ-opioid receptors [6]; against [D-Ala2]deltorphin I dose-response curves) was “competitive antagonist”. The “MVD pA2” value (δ-opioid receptors [6]; antagonism of deltorphin C, Schild plot) was 8.8, the Ki (δ-opioid receptors [7]) was 0.22 ± 0.04 nM and the “fold decrease of δ-opioid receptor selectivity” value (δ-opioid receptors [7]) was 13 fold. For the same compound, the “fold decrease in affinity for δ-opioid receptors” value (δ-opioid receptors [7]; compared to reference H-Dmt-Tic-Glu-NH2 (1)) was 3.7 fold, the “μ/δ (δ-opioid receptor selectivity)” value (δ-opioid receptors [7]) was 1700 and the Ki (μ-opioid receptors [8]) was 380 ± 65 nM. The “fold increase of μ-opioid receptor affinity” value (μ-opioid receptors [8]; compared to the reference tripeptide (1)) was 3.6 fold and the IC50 (μ-opioid receptors [4]) was > 1000 nM.

In the case of “2′,6′-dimethyl-L-tyrosine-1,2,3,4-tetrahydroisoquinoline-3-carboxylic acid [Dmt-Tic]”, the “Ki^μ/Ki^δ” value (δ-opioid receptor [1]; literature (Salvadori et al. 1995 and others)) is listed as 150,780 and the pA2 (δ-opioid receptor [9]) is listed as 8.2.

In the case of `Cc1cc(O)cc(C)c1C[C@H](N)C(=O)N1Cc2ccccc2C[C@H]1C(=O)N[C@@H](CCC(=O)O)C(=O)NCCCCCNC(=S)Nc1ccc(-c2c3ccc(=O)cc-3oc3cc(O)ccc23)c(C(=O)O)c1` [Compound 3, 5-(3-{5-[2-({2-[2-amino-3-(4-hydroxy-2,6-dimethyl-phenyl)-propionyl]-1,2,3,4-tetrahydro-isoquinoline-3-carbonyl}-amino)-4-carboxy-butyrylamino]-pentyl}-thioureido)-2-(6-hydroxy-3-oxo-3H-xanten-9-yl)-benzoic acid], the “residual fluorescence after antagonist preincubation” value (mouse δ-opioid receptors; NG108-15 cells, competition with δ-opioid receptor antagonists) is reported as “ca. 10%”, the Ki (δ-opioid receptors [7]) is reported as 0.035 ± 0.01 nM and the “fold more δ-selective than fluorescent naltrindole derivative” value (δ-opioid receptors [7]; comparator from Korlipara et al. 1997) is reported as 857 fold. For the same compound, the “fold more δ-selective than fluorescent naltrindole derivative” value (δ-opioid receptors [7]; comparator from Kshirsagar et al. 1998) was 115 fold, the “fold decrease of δ-opioid receptor selectivity” value (δ-opioid receptors [7]) was 5 fold and the “δ-opioid receptor binding affinity (in words)” value (δ-opioid receptors [7]; rat brain synaptosomes) was “subnanomolar”. For the same compound, the “μ/δ (δ-opioid receptor selectivity)” value (δ-opioid receptors [7]) was 4,370 and the Ki (μ-opioid receptors [8]) was 152 ± 44 nM.

Ac-Glu-NH(CH2)5—NH—(C═S)—NH-fluorescein gave a fluorescence emission maximum [10] of 515 nm.
